Test results from the supplement of paper PMC10307832.

What was measured:
Assay in all cases: relative viability (nuclei count vs DMSO), 5 days (fraction); higher = more cells survive
[1] = compound: CC1(C)CNc2cc(NC(=O)c3cccnc3NCc3ccncc3)ccc21 [Motesanib] + CC1(C)CCC(c2ccc(Cl)cc2)=C(CN2CCN(c3ccc(C(=O)NS(=O)(=O)c4ccc(N[C@H](CCN5CCOCC5)CSc5ccccc5)c(S(=O)(=O)C(F)(F)F)c4)cc3)CC2)C1 [Navitoclax] (partner 0.5 µM)
Summary of the method: (§1)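 Relative viability divides the nuclei count in treated wells by that in vehicle wells. Lung cancer cell lines were seeded in 1536-well plates, dosed by pin tool the next day, and fixed and stained after 5 days in one step with final 0.05% Triton X-100, 1% formaldehyde and 1 ug/ml Hoechst. Dosing was a single drug or a fixed anchor-drug dose plus five library-drug doses (not always all listed) in √10 steps, and values are medians of duplicate plates imaged at 4×.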

[2] = compound: C[C@@]1(C(=O)Nc2ccc(F)nc2)CCCN1c1nc(Nc2cc(C3CC3)n[nH]2)c2cccn2n1 + CCNC(=O)c1noc(-c2cc(C(C)C)c(O)cc2O)c1-c1ccc(CN2CCOCC2)cc1 [Luminespib] (partner 0.01 µM)
Summary of the method: as §1

[3] = compound: C[C@@]1(C(=O)Nc2ccc(F)nc2)CCCN1c1nc(Nc2cc(C3CC3)n[nH]2)c2cccn2n1 + Cc1nc(Nc2ncc(C(=O)Nc3c(C)cccc3Cl)s2)cc(N2CCN(CCO)CC2)n1 [Dasatinib] (partner 0.075 µM)
Summary of the method: as §1

[4] = compound: CC1(C)CNc2cc(NC(=O)c3cccnc3NCc3ccncc3)ccc21 [Motesanib] + CS(=O)(=O)CCNCc1ccc(-c2ccc3ncnc(Nc4ccc(OCc5cccc(F)c5)c(Cl)c4)c3c2)o1 [Lapatinib] (partner 2 µM)
Summary of the method: as §1

Cell Line	relative viability ([1]; first compound 0.01 µM)	relative viability ([1]; first compound 0.03162 µM)	relative viability ([1]; first compound 0.1 µM)	relative viability ([1]; first compound 0.3162 µM)	relative viability ([1]; first compound 1 µM)	relative viability ([2]; first compound 0.04 µM)	relative viability ([2]; first compound 0.1265 µM)	relative viability ([2]; first compound 0.4 µM)	relative viability ([2]; first compound 1.265 µM)	relative viability ([3]; first compound 0.04 µM)	relative viability ([3]; first compound 0.1265 µM)	relative viability ([3]; first compound 0.4 µM)	relative viability ([3]; first compound 1.265 µM)	relative viability ([4]; first compound 0.01 µM)	relative viability ([4]; first compound 0.03162 µM)	relative viability ([4]; first compound 0.1 µM)	relative viability ([4]; first compound 0.3162 µM)	relative viability ([4]; first compound 1 µM)
NCI-H2009	1.12	1.19	1.15	1.21	1.18	1.11	1.08	1.01	1.07	0.279	0.224	0.166	0.154	1.08	0.927	0.962	1.36	0.898
LOU-NH91	0.774	0.638	0.741	0.703	0.769	0.335	0.353	0.305	0.335	0.461	0.449	0.395	0.286	0.724	0.771	0.752	0.754	0.765
NCI-H2405	–	0.863	0.856	0.892	0.965	0.549	0.489	0.374	0.432	0.211	0.177	0.185	0.186	–	1.05	1.09	1.16	1.12
LCLC-97TM1	0.406	0.519	0.32	0.375	0.657	0.342	0.272	0.23	0.378	0.54	0.224	0.229	0.134	1.04	0.96	0.688	1.09	0.967
NCI-H596	0.962	0.893	0.9	0.879	1.1	0.819	0.885	0.88	1.17	0.552	0.439	0.415	0.372	1.08	1.04	1.06	1.16	1.18
NCI-H727	0.519	0.349	0.321	0.52	0.446	0.34	0.319	0.249	0.249	0.278	0.182	0.273	0.229	0.821	0.902	0.858	1.13	0.787
H3255	0.507	0.603	0.544	0.506	0.529	1.02	0.982	0.89	0.811	0.36	0.361	0.282	0.235	0.228	0.276	0.224	0.268	0.254
SK-MES-1	1.13	1.15	1.23	1.24	1.21	0.666	0.664	0.763	0.609	0.27	0.244	0.159	0.153	0.46	0.481	0.418	0.465	0.454
NCI-H1437	1.09	1.05	1.07	1.11	1.13	1.18	1.19	1.01	1.02	0.218	0.236	0.223	0.125	0.719	0.78	0.756	0.9	0.781
LU99A	0.82	0.849	0.75	0.798	0.835	0.244	0.246	0.197	0.181	0.409	0.257	0.219	0.197	1.03	1.2	0.94	1.03	0.883
HCC-827	1.11	1.01	1.07	1.05	1.02	0.747	0.388	0.529	1	0.34	0.395	0.222	0.339	0.198	0.191	0.172	0.224	0.192
LK-2	0.915	0.877	0.811	0.911	0.894	0.159	0.204	0.174	0.169	0.217	0.184	0.155	0.229	0.784	1.19	0.78	1.04	0.901
BEN	0.0507	0.0585	0.0627	0.0938	0.0672	0.381	0.487	0.641	0.325	0.32	0.382	0.329	0.271	0.591	0.715	0.723	0.714	0.789
NCI-H23	0.901	0.552	–	0.779	0.826	0.21	0.211	0.213	0.214	0.653	0.384	0.325	0.269	1.14	0.864	–	1.13	1.11
NCI-H1395	1.22	1.06	1.27	1.17	1.27	0.768	0.717	0.583	0.889	0.374	0.34	0.388	0.378	0.925	1.03	1.04	1.08	0.959
201T	1.2	1.21	1.21	1.19	1.2	0.878	0.84	0.799	1.02	0.326	0.29	0.301	0.324	1.01	1.04	1.08	1.04	0.903
NCI-H2170	0.574	0.773	0.545	0.676	0.537	0.521	0.505	0.45	0.521	0.572	0.564	0.47	0.414	0.243	0.282	0.228	0.262	0.293
NCI-H460	1.15	1.05	1.09	1.14	1.24	0.0318	0.0246	0.0368	0.0359	0.258	0.101	0.0641	0.0353	0.961	0.779	0.892	0.974	0.864
HCC-15	0.69	0.718	0.713	0.773	0.748	0.481	0.364	0.55	0.417	0.458	0.233	0.271	0.297	0.849	0.874	0.723	0.947	0.886
EPLC-272H	1.16	0.905	1.3	1.04	1.26	0.214	–	0.187	0.272	0.275	–	0.157	0.084	1	0.943	0.847	0.925	0.898
